These results are taken from patent US8791107B2, “N-substituted oxazinopteridines and oxazinopteridinones” (Takeda Pharmaceutical Company Limited, priority 2011, dated 2014).

SMILES strings stand for the structures. A value given as a limit tells only on which side of the number the result lay.

The target of this assay is T1, PI3Kδ (Homo sapiens, UniProt O00329).
T1 construct: The protein is full length and co-expressed with untagged PIK3R1; GST; purchased Invitrogen PV5274
T1 sequence (O00329 whole entry): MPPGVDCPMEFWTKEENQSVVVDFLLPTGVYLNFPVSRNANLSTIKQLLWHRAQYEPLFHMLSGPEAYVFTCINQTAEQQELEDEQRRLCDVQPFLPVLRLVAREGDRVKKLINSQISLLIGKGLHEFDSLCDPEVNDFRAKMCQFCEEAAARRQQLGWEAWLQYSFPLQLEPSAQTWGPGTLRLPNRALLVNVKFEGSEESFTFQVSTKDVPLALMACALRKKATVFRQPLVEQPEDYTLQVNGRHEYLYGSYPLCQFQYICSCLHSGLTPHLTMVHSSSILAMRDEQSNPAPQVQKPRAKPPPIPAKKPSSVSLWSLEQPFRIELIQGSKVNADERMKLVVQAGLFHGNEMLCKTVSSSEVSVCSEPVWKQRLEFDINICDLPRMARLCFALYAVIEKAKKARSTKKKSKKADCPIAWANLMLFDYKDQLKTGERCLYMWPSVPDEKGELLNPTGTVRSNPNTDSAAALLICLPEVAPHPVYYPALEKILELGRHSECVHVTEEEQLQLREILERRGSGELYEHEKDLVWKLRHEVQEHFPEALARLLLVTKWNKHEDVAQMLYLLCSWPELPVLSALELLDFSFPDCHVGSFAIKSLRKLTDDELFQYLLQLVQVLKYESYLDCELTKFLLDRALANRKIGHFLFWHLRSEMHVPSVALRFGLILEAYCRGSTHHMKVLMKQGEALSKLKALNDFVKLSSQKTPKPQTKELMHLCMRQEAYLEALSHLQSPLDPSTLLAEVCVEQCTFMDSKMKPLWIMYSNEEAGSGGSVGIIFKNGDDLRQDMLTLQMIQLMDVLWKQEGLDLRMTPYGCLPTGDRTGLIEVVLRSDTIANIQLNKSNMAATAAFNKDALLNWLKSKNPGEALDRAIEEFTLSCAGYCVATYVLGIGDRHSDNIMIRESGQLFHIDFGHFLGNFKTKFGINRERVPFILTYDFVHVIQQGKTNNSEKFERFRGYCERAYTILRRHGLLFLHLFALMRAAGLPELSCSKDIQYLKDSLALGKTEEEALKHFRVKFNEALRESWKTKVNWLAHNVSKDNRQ
T1 sequence (P27986 whole entry partner): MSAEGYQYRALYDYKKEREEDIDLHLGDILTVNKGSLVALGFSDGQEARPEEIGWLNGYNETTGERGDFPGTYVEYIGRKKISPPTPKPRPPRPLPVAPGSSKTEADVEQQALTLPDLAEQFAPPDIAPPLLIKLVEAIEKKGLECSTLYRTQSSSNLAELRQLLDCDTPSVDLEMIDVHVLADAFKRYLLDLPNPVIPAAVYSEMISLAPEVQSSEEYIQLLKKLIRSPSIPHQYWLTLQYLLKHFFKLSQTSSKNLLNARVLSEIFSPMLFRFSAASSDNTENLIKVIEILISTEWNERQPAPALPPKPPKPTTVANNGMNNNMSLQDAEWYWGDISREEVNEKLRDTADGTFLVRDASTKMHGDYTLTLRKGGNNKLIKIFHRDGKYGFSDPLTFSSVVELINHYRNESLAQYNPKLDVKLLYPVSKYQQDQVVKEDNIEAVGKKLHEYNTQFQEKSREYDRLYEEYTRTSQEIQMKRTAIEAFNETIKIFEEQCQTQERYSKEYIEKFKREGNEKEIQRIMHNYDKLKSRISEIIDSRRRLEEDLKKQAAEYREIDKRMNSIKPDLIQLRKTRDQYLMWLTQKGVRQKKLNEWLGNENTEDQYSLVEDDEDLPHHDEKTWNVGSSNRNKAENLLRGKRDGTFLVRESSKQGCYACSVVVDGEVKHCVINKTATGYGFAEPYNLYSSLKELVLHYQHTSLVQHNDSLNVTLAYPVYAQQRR
Description: PI3Kδ inhibition, modified PIK3CD Adapta TR-FRET assay. The class given is biochemical. The note with it: recombinant GST-tagged full length PIK3CD co-expressed with PIK3R1 (p85α); 2 μM ATP, 50 μM PIP2; read-out: PI3Kδ Inhibition (pIC50) (converted). A digest of the protocol: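 Full-length GST-PIK3CD co-expressed with p85α was run in 50 mM HEPES pH 7.5, 3 mM MgCl2, 1 mM EGTA, 100 mM NaCl, 0.03% CHAPS, 2 mM DTT, 1% DMSO, with 12-point compound titrations. Reactions at room temperature were started with solution containing 2 μM ATP and 50 μM PIP2. ADP was detected by Adapta TR-FRET (620 nm-ratioed).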
In general terms: In TR-FRET formats the signal depends on donor and acceptor labels being close together.
Take `CCOC(=O)c1cccc(N2C[C@@H]3COCCN3c3nc(-c4cccc5[nH]ccc45)ncc32)c1` [Example 190, (R)-ethyl 3-(2-(1H-indol-4-yl)-6a,7,9,10-tetrahydro-[1,4]oxazino[3,4-h]pteridin-5(6H)-yl)benzoate]: the IC50 was 25.1 nM.
Then `CS(=O)(=O)c1cccc(N2C[C@@H]3COCCN3c3nc(-c4cccc5[nH]ccc45)ncc32)c1` [Example 191, (R)-2-(1H-indol-4-yl)-5-(3-(methylsulfonyl)phenyl)-5,6,6a,7,9,10-hexahydro-[1,4]oxazino[3,4-h]pteridine], with 3.16 nM; and `c1cc(-c2ncc3c(n2)N2CCOC[C@H]2CN3C2CCOCC2)c2cc[nH]c2c1` [Example 192, (R)-2-(1H-indol-4-yl)-5-(tetrahydro-2H-pyran-4-yl)-5,6,6a,7,9,10-hexahydro-[1,4]oxazino[3,4-h]pteridine], with 3.16 nM.
Then `c1cc(-c2ncc3c(n2)N2CCOC[C@H]2CN3c2cccc3[nH]ccc23)c2cc[nH]c2c1` [Example 193, (R)-2,5-di(1H-indol-4-yl)-5,6,6a,7,9,10-hexahydro-[1,4]oxazino[3,4-h]pteridine], with 794 nM.
Then `c1cc(-c2ncc3c(n2)N2CCOC[C@H]2CN3CCC2OCCO2)c2cc[nH]c2c1` [Example 194, (R)-5-(2-(1,3-dioxolan-2-yl)ethyl)-2-(1H-indol-4-yl)-5,6,6a,7,9,10-hexahydro-[1,4]oxazino[3,4-h]pteridine], with 3.16 nM; and `COC(=O)CCCN1C[C@@H]2COCCN2c2nc(-c3cccc4[nH]ccc34)ncc21` [Example 195, (R)-methyl 4-(2-(1H-indol-4-yl)-6a,7,9,10-tetrahydro-[1,4]oxazino[3,4-h]pteridin-5(6H)-yl)butanoate], with 3.16 nM; and `O=C(O)CCCN1C[C@@H]2COCCN2c2nc(-c3cccc4[nH]ccc34)ncc21` [Example 196, (R)-4-(2-(1H-indol-4-yl)-6a,7,9,10-tetrahydro-[1,4]oxazino[3,4-h]pteridin-5(6H)-yl)butanoic acid], with 6.31 nM.
As to `N[C@H]1CC[C@H](CN2C[C@@H]3COCCN3c3nc(-c4cccc5[nH]ccc45)ncc32)CC1` [Example 197], the IC50 is 3160 nM.
`CCOC(=O)c1cncc(N2C[C@@H]3COCCN3c3nc(-c4cccc5[nH]ccc45)ncc32)c1` [Example 198, (R)-ethyl 5-(2-(1H-indol-4-yl)-6a,7,9,10-tetrahydro-[1,4]oxazino[3,4-h]pteridin-5(6H)-yl)nicotinate]: the IC50 was 15.8 nM.
With `COC(=O)c1cncc(N2C[C@@H]3COCCN3c3nc(-c4cccc5[nH]ccc45)ncc32)c1` [Example 199, (R)-methyl 5-(2-(1H-indol-4-yl)-6a,7,9,10-tetrahydro-[1,4]oxazino[3,4-h]pteridin-5(6H)-yl)nicotinate], the IC50 was 1000 nM.
Take `COc1cncc(N2C[C@@H]3COCCN3c3nc(-c4cccc5[nH]ccc45)ncc32)c1` [Example 201, (R)-2-(1H-indol-4-yl)-5-(5-methoxypyridin-3-yl)-5,6,6a,7,9,10-hexahydro-[1,4]oxazino[3,4-h]pteridine]: the IC50 is 12.6 nM.
For the molecule `COC(=O)c1cc(N2C[C@@H]3COCCN3c3nc(-c4cccc5[nH]ccc45)ncc32)cnc1OC` [Example 202, (R)-methyl 5-(2-(1H-indol-4-yl)-6a,7,9,10-tetrahydro-[1,4]oxazino[3,4-h]pteridin-5(6H)-yl)-2-methoxynicotinate], the IC50 is 2.51 nM.
`O=C(CN1C[C@@H]2COCCN2c2nc(-c3cccc4[nH]ccc34)ncc21)Nc1ccncc1` [Example 203, (R)-2-(2-(1H-indol-4-yl)-6a,7,9,10-tetrahydro-[1,4]oxazino[3,4-h]pteridin-5(6H)-yl)-N-(pyridin-4-yl)acetamide]: the IC50 was 398 nM.
Turning to `COCCNC(=O)CN1C[C@@H]2COCCN2c2nc(-c3cccc4[nH]ccc34)ncc21` [Example 204, (R)-2-(2-(1H-indol-4-yl)-6a,7,9,10-tetrahydro-[1,4]oxazino[3,4-h]pteridin-5(6H)-yl)-N-(2-methoxyethyl)acetamide], the IC50 is 158 nM.
As to `O=C(CN1C[C@@H]2COCCN2c2nc(-c3cccc4[nH]ccc34)ncc21)NC1CCOCC1` [Example 205, (R)-2-(2-(1H-indol-4-yl)-6a,7,9,10-tetrahydro-[1,4]oxazino[3,4-h]pteridin-5(6H)-yl)-N-(tetrahydro-2H-pyran-4-yl)acetamide], the IC50 was 200 nM.
With `Cn1cc(NC(=O)CN2C[C@@H]3COCCN3c3nc(-c4cccc5[nH]ccc45)ncc32)cn1` [Example 206, (R)-2-(2-(1H-indol-4-yl)-6a,7,9,10-tetrahydro-[1,4]oxazino[3,4-h]pteridin-5(6H)-yl)-N-(1-methyl-1H-pyrazol-4-yl)acetamide], the IC50 is 50.1 nM.
Consider `O=C(CN1C[C@@H]2COCCN2c2nc(-c3cccc4[nH]ccc34)ncc21)NC1CC1` [Example 207, (R)-2-(2-(1H-indol-4-yl)-6a,7,9,10-tetrahydro-[1,4]oxazino[3,4-h]pteridin-5(6H)-yl)-N-cyclopropylacetamide], for which the IC50 is 251 nM.
Then `CC(C)(C#N)NC(=O)CN1C[C@@H]2COCCN2c2nc(-c3cccc4[nH]ccc34)ncc21` [Example 208, (R)-2-(2-(1H-indol-4-yl)-6a,7,9,10-tetrahydro-[1,4]oxazino[3,4-h]pteridin-5(6H)-yl)-N-(2-cyanopropan-2-yl)acetamide], with 398 nM; and `CC(C)(C)C(N)CCN1C[C@@H]2COCCN2c2nc(-c3cccc4[nH]ccc34)ncc21` (stereo partly drawn) [Example 210, 1-((R)-2-(1H-indol-4-yl)-6a,7,9,10-tetrahydro-[1,4]oxazino[3,4-h]pteridin-5(6H)-yl)-4,4-dimethylpentan-3-amine], with above 10000 nM; and `O=C(CN1C[C@@H]2COCCN2c2nc(-n3c(C(F)F)nc4ccccc43)ncc21)NCC1CCOCC1` [Example 211, (R)-2-(2-(2-(difluoromethyl)-1H-benzo[d]imidazol-1-yl)-6a,7,9,10-tetrahydro-[1,4]oxazino[3,4-h]pteridin-5(6H)-yl)-N-((tetrahydro-2H-pyran-4-yl)methyl)acetamide], with 20 nM.
In the case of `CN(CC1CCOCC1)C(=O)CN1C[C@@H]2COCCN2c2nc(-c3cccc4[nH]ccc34)ncc21` [Example 212, (R)-2-(2-(1H-indol-4-yl)-6a,7,9,10-tetrahydro-[1,4]oxazino[3,4-h]pteridin-5(6H)-yl)-N-methyl-N-((tetrahydro-2H-pyran-4-yl)methyl)acetamide], the IC50 was 39.8 nM.
Then `O=C(CN1C[C@@H]2COCCN2c2nc(-c3ccc(CO)cc3)ncc21)NCC1CCOCC1` [Example 214, (R)-2-(2-(4-(hydroxymethyl)phenyl)-6a,7,9,10-tetrahydro-[1,4]oxazino[3,4-h]pteridin-5(6H)-yl)-N-((tetrahydro-2H-pyran-4-yl)methyl)acetamide], with 2000 nM; and `O=C(CN1C[C@@H]2COCCN2c2nc(-c3ccccc3CO)ncc21)NCC1CCOCC1` [Example 215, (R)-2-(2-(2-(hydroxymethyl)phenyl)-6a,7,9,10-tetrahydro-[1,4]oxazino[3,4-h]pteridin-5(6H)-yl)-N-((tetrahydro-2H-pyran-4-yl)methyl)acetamide], with 5010 nM; and `COCc1cccc(-c2ncc3c(n2)N2CCOC[C@H]2CN3CC(=O)NCC2CCOCC2)c1` [Example 216, (R)-2-(2-(3-(methoxymethyl)phenyl)-6a,7,9,10-tetrahydro-[1,4]oxazino[3,4-h]pteridin-5(6H)-yl)-N-((tetrahydro-2H-pyran-4-yl)methyl)acetamide], with 1000 nM.
Take `O=C(CN1C[C@@H]2COCCN2c2nc(-c3cccc(OC(F)F)c3)ncc21)NCC1CCOCC1` [Example 217, (R)-2-(2-(3-(difluoromethoxy)phenyl)-6a,7,9,10-tetrahydro-[1,4]oxazino[3,4-h]pteridin-5(6H)-yl)-N-((tetrahydro-2H-pyran-4-yl)methyl)acetamide]: the IC50 was 794 nM.
To `N#Cc1cccc(-c2ncc3c(n2)N2CCOC[C@H]2CN3CC(=O)NCC2CCOCC2)c1` [Example 218, (R)-2-(2-(3-cyanophenyl)-6a,7,9,10-tetrahydro-[1,4]oxazino[3,4-h]pteridin-5(6H)-yl)-N-((tetrahydro-2H-pyran-4-yl)methyl)acetamide] belongs 1260 nM; to `O=C(CN1C[C@@H]2COCCN2c2nc(-c3ccc(F)c(CO)c3)ncc21)NCC1CCOCC1` [Example 220, (R)-2-(2-(4-fluoro-3-(hydroxymethyl)phenyl)-6a,7,9,10-tetrahydro-[1,4]oxazino[3,4-h]pteridin-5(6H)-yl)-N-((tetrahydro-2H-pyran-4-yl)methyl)acetamide], 251 nM.
With `Nc1ccc(-c2ncc3c(n2)N2CCOC[C@H]2CN3CC(=O)NCC2CCOCC2)cn1` [Example 221, (R)-2-(2-(6-aminopyridin-3-yl)-6a,7,9,10-tetrahydro-[1,4]oxazino[3,4-h]pteridin-5(6H)-yl)-N-((tetrahydro-2H-pyran-4-yl)methyl)acetamide], the IC50 was 126 nM.
Consider `CNC(=O)Nc1ccc(-c2ncc3c(n2)N2CCOC[C@H]2CN3CC(=O)NCC2CCOCC2)cc1` [Example 222, (R)-2-(2-(4-(3-methylureido)phenyl)-6a,7,9,10-tetrahydro-[1,4]oxazino[3,4-h]pteridin-5(6H)-yl)-N-((tetrahydro-2H-pyran-4-yl)methyl)acetamide], for which the IC50 was 31.6 nM.
Consider `O=C(CN1C[C@@H]2COCCN2c2nc(-c3ccsc3)ncc21)NCC1CCOCC1` [Example 223, (R)—N-((tetrahydro-2H-pyran-4-yl)methyl)-2-(2-(thiophen-3-yl)-6a,7,9,10-tetrahydro-[1,4]oxazino[3,4-h]pteridin-5(6H)-yl)acetamide], for which the IC50 was 794 nM.
